Measurements: patent US8575143B2, “3-aryl-substituted quinazolones, and uses thereof” (Prolexys Pharmaceuticals, Inc., priority 2005, dated 2013)
Like-named read-outs stand apart in the source and are kept apart here.

Tests used:
[1] = tested on: HT-1080 cells; assay: Sytox assay, inhibition of growth of HT-1080 cells; assay type: cell-based; conditions: Homo sapiens, 48 hours exposure
Protocol: The ability of Compound 1, in DMSO, to inhibit the growth of tumor and normal cells was measured. The compound was assayed by the Sytox primary screen, a phenotypic assay which monitors alterations in cell survival-proliferation as a result of compound treatment. It was devised as high throughput method to identify compounds which specifically alter the growth potential of cells harboring the causative mutations found in cancer patients while not affecting the growth of normal cells. The assay relies upon an inexpensive, simple and reliable readout of a membrane impermeable fluorescent dye (Sytox, from Molecular Probes) which binds to nucleic acid. In healthy cells, no signal is detected because the cell's membrane is intact and the dye will not enter. However, if a cell's membrane is compromised as a result of apoptosis or necrosis, a fluorescent signal proportional to the number of similarly affected cells will be detected. By utilizing a two-step readout (final read in the presence of detergent to permit labeling of all cells), the assay can identify compounds which produce cytostasis, cytotoxicity and/or mitogenesis. The first read or “dead cell” read, provides an estimate of the toxicity of a given compound by indicating the number of dead or dying cells in the culture at the time of assay. The second read or “total cell” read, captures both the cumulative effects of cytoxicity in reducing the size of the cell population as well as any cytostatic or anti-proliferative effects a test compound may exert on the cells in the test population in the absence of toxicity.
Cells were seeded overnight in 96 well plates at densities that without treatment would permit 95% confluence in the wells 72 hours later. The following day, the cells were exposed to test compounds in a dilution series for a period of 48 hours. Following this incubation period, the Sytox reagent was added to the cultures at the manufacturer's recommended concentration and the dead cell fluorescence read was taken. After completion of this measurement, the detergent Saponin was added to each well of the cultures to permeabilize the membranes allowing the Sytox reagent to enter every cell, thereby facilitating measurement of the total number of cells remaining in the culture.
The ability of various compounds of the invention, in DMSO, to inhibit the growth of HT-1080 cells was measured. The HT-1080 cell line used in these experiments was derived from a patient with fibrosarcoma and harbors an activating mutation in the N-ras gene at codon 12. The compound was assayed using the assay described in Example 3. The results of the assay are shown in the table below, where the activity corresponds to the following ranges: A—less than 10 nM, B—10-100 nM, C—100-1000 nM, D—1000-2000 nM, E—greater than 2000 nM.

[2] = tested on: HT-1080 xenografts; assay: HT-1080 tumor xenograft, daily IV administration for 5 days; assay type: in vivo; conditions: nude Balb/c mice, QD x 5 days
Protocol: The ability of compounds 10 and 25 to inhibit the growth of HT-1080 xenografts following daily, intravenous administration was examined using similar methods (described below). Compounds 10 and 25 were administered for 5 consecutive days and were evaluated at their respective IV MTD doses.
The HT-1080 cell line used in this xenograft study was derived from a patient with fibrosarcoma and harbors an activating mutation in the N-ras gene at codon 12. […] Robust tumor regression was observed when the compounds were administered at their respective MTD. No adverse clinical signs were observed
Nude Balb/c (Nu/Nu strain, Charles River Laboratories), female, 5-6 wks. old (˜22 g average body weight).
• A: Untreated Control, n=6 • B: Vehicle Control for Compound 10, QD×5 days, IV, n=6 • D: Compound 10 @ 25 mg/Kg (MTD), QD×5 days, IV, n=6 • E: Compound 10 @ 12.5 mg/Kg (½ MTD), QD×5 days, IV, n=6 Treatment Schedule: […]
Starting on Day 1, all animals were weighed, and tumor dimensions (L & W) were measured, every other day. […]
The resulting tumor volume values were averaged for each study group for each time point, and were then plotted against time. Variance was expressed as standard error of the mean (±SEM).

[3] = IV maximum tolerated dose (MTD); conditions: Nude Balb/c, mouse, in vivo, QD x 5 days, mice
[4] = tested on: tumor cells; assay: Sytox primary screen, inhibition of growth of tumor cells; assay type: cell-based; conditions: compound in DMSO, 48 hours exposure, Sytox read
Protocol: The ability of Compound 1, in DMSO, to inhibit the growth of tumor and normal cells was measured. The compound was assayed by the Sytox primary screen, a phenotypic assay which monitors alterations in cell survival-proliferation as a result of compound treatment. It was devised as high throughput method to identify compounds which specifically alter the growth potential of cells harboring the causative mutations found in cancer patients while not affecting the growth of normal cells. The assay relies upon an inexpensive, simple and reliable readout of a membrane impermeable fluorescent dye (Sytox, from Molecular Probes) which binds to nucleic acid. In healthy cells, no signal is detected because the cell's membrane is intact and the dye will not enter. However, if a cell's membrane is compromised as a result of apoptosis or necrosis, a fluorescent signal proportional to the number of similarly affected cells will be detected. By utilizing a two-step readout (final read in the presence of detergent to permit labeling of all cells), the assay can identify compounds which produce cytostasis, cytotoxicity and/or mitogenesis. The first read or “dead cell” read, provides an estimate of the toxicity of a given compound by indicating the number of dead or dying cells in the culture at the time of assay. […]

[5] = compound in DMSO, Sytox assay of Example 3, read-out: Activity (inhibition of growth of HT-1080 cells)
[6] = Sytox read, read-out: IC50, inhibition of proliferation of HT-1080 cells

Structure (SMILES): O=c1c2ccccc2nc(CN2CCNCC2)n1-c1ccc(OC(F)(F)F)cc1Cl [Compound 21, 3-(2-chloro-4-(trifluoromethoxy)phenyl)-2-(piperazin-1-ylmethyl)quinazolin-4(3H)-one]
- IC50 [1, 5]: 100 to 1000 nM

Structure (SMILES): CCOc1ccccc1-n1c(CN2CCCN(C)CC2)nc2cc(N)ccc2c1=O [Compound 25, 7-amino-3-(2-ethoxyphenyl)-2-((4-methyl-1,4-diazepan-1-yl)methyl)quinazolin-4(3H)-one]
- IC50 [1, 5]: < 10 nM
- inhibition in growth of HT-1080 cell xenograft [2]: inhibition in growth

Structure (SMILES): CCOc1ccccc1-n1c(CN2CCNCC2)nc2cccc(Cl)c2c1=O [Compound 2, 5-chloro-3-(2-ethoxyphenyl)-2-(piperazin-1-ylmethyl)quinazolin-4(3H)-one]
- IC50 [1, 6]: 100 nM
- IC50 [1, 5]: 10 to 100 nM

Structure (SMILES): CN1CCCN(Cc2nc3ccccc3c(=O)n2-c2c(F)cc(F)cc2Cl)CC1 [Compound 18, 3-(2-chloro-4,6-difluorophenyl)-2-((4-methyl-1,4-diazepan-1-yl)methyl)quinazolin-4(3H)-one]
- IC50 [1, 5]: 100 to 1000 nM

Structure (SMILES): CN1CCCN(Cc2nc3cc(N)ccc3c(=O)n2-c2ccc(F)cc2Cl)CC1 [Compound 13, 7-amino-3-(2-chloro-4-fluorophenyl)-2-((4-methyl-1,4-diazepan-1-yl)methyl)quinazolin-4(3H)-one]
- IC50 [1, 5]: > 2000 nM

Structure (SMILES): CCOc1ccccc1-n1c(CN2CCCN(C)CC2)nc2cc(NCCN3CCOCC3)ccc2c1=O [Compound 15, 3-(2-ethoxyphenyl)-2-((4-methyl-1,4-diazepan-1-yl)methyl)-7-(2-morpholinoethylamino)quinazolin-4(3H)-one]
- IC50 [1, 5]: 100 to 1000 nM

Structure (SMILES): CCOc1ccccc1-n1c(C(C)N2CCCN(C)CC2)nc2cc(N)ccc2c1=O (centres unmarked) [Compound 10, 7-amino-3-(2-ethoxyphenyl)-2-(1-(4-methyl-1,4-diazepan-1-yl)ethyl)quinazolin-4(3H)-one]
- IC50 [1, 5]: < 10 nM
- inhibition in growth of HT-1080 cell xenograft [2]: inhibition in growth
- MTD at 5 days [3]: 25 mg/kg

Structure (SMILES): O=c1c2ccccc2nc(CN2CCNCC2)n1-c1c(F)cc(F)cc1Cl [Compound 17, 3-(2-chloro-4,6-difluorophenyl)-2-(piperazin-1-ylmethyl)quinazolin-4(3H)one]
- IC50 [1, 5]: 100 to 1000 nM

Structure (SMILES): CCOc1ccccc1-n1c(C(C)N2CCCN(C)CC2)nc2cc([N+](=O)[O-])ccc2c1=O (centres unmarked) [Compound 12, 3-(2-ethoxyphenyl)-2-(1-(4-methyl-1,4-diazepan-1-yl)ethyl)-7-nitroquinazolin-4(3H)-one]
- IC50 [1, 5]: 100 to 1000 nM

Structure (SMILES): CN1CCCN(Cc2nc3cc(N)ccc3c(=O)n2-c2c(Cl)cccc2Cl)CC1 [Compound 22, 7-amino-3-(2,6-dichlorophenyl)-2-((4-methyl-1,4-diazepan-1-yl)methyl)quinazolin-4(3H)-one]
- IC50 [1, 5]: 100 to 1000 nM

Structure (SMILES): CCOc1ccccc1-n1c(CN2CCCN(C)CC2)nc2cc(NCCOC)ccc2c1=O [Compound 11, 3-(2-ethoxyphenyl)-7-(2-methoxyethylamino)-2-((4-methyl-1,4-diazepan-1-yl)methyl)quinazolin-4(3H)-one]
- IC50 [1, 5]: > 2000 nM

Structure (SMILES): CCOc1ccccc1-n1c(C(C)N2CCN(C(=O)COc3ccc(Cl)cc3)CC2)nc2cc(Cl)ccc2c1=O (centres unmarked) [Compound 1, 2-(1-(4-(2-(4-chlorophenoxy)acetyl)piperazin-1-yl)ethyl)-7-chloro-3-(2-ethoxyphenyl)quinazolin-4(3H)-one]
- IC50 [4]: ~10000 nM

Structure (SMILES): Nc1ccc2c(=O)n(-c3ccc(F)cc3Cl)c(CN3CCNCC3)nc2c1 [Compound 14, 7-amino-3-(2-chloro-4-fluorophenyl)-2-(piperazin-1-ylmethyl)quinazolin-4(3H)-one]
- IC50 [1, 5]: > 2000 nM

Structure (SMILES): CCOc1ccccc1-n1c(CN2CCCN(C)CC2)nc2cc(F)ccc2c1=O [Compound 24, 3-(2-ethoxyphenyl)-7-fluoro-2-((4-methyl-1,4-diazepan-1-yl)methyl)quinazolin-4(3H)-one]
- IC50 [1, 5]: 100 to 1000 nM

Structure (SMILES): CN1CCCN(Cc2nc3ccccc3c(=O)n2-c2ccc(OC(F)(F)F)cc2Cl)CC1 [Compound 20, 3-(2-chloro-4-(trifluoromethoxy)phenyl)-2-((4-methyl-1,4-diazepan-1-yl)methyl)quinazolin-4(3H)-one]
- IC50 [1, 5]: 10 to 100 nM

Structure (SMILES): CCOc1cc(F)ccc1-n1c(CN2CCCN(C)CC2)nc2cc(N)ccc2c1=O [Compound 19, 7-amino-3-(2-ethoxy-4-fluorophenyl)-2-((4-methyl-1,4-diazepan-1-yl)methyl)quinazolin-4(3H)-one]
- IC50 [1, 5]: < 10 nM

Structure (SMILES): CCOc1ccccc1-n1c(CN2CCCN(C)CC2)nc2cc(C(F)(F)F)ccc2c1=O [Compound 16, 3-(2-ethoxyphenyl)-2-((4-methyl-1,4-diazepan-1-yl)methyl)-7-(trifluoromethyl)quinazolin-4(3H)-one]
- IC50 [1, 5]: 100 to 1000 nM

Structure (SMILES): CCOc1cc([N+](=O)[O-])ccc1-n1c(CN2CCCNCC2)nc2ccccc2c1=O [Compound 3, 2-((1,4-diazepan-1-yl)methyl)-3-(2-ethoxy-4-nitrophenyl)quinazolin-4(3H)-one]
- IC50 [1, 6]: 200 nM
- IC50 [1, 5]: 100 to 1000 nM
